What was measured:
prim-AML ROS-low LSCs = experiment: In vitro viability of sorted ROS-low LSCs from primitive AML; assay type: cell-based, human; conditions: in vitro treatment
Description: (§1) FIG. 2 is a series of charts showing viability of sorted ROSlow LSCs from mono-AML (n=5) and prim-AML (n=7) after 24 hours in vitro treatment with venetoclax alone or in combination with a fixed dose of 1.5 μM azacitidine. Each data point was expressed as mean±SD of technical triplicates. All viability data were normalized to untreated control.
(§2) To understand if the lack of response by monocytic AML to VEN+AZA is driven by intrinsic mechanisms, VEN+AZA sensitivity was directly evaluated in vitro, where protection from extrinsic factors such as the microenvironment is minimal. For these experiments, a second cohort of AML specimens with sufficient material to allow for more robust in vitro experimentation was used (herein referred to as Research Cohort 2). Using the surface expression profile of CD117, CD11b, CD68 and CD64, the primitive or monocytic compartment was isolated for analysis (herein referred to as prim-AML or mono-AML, respectively). Prim-AML has the phenotype of CD117+/CD11b−/CD68−/CD64− and mono-AML is predominantly CD117−/CD11b+/CD68+/CD64+. The in vitro drug sensitivity of these populations is shown in FIG. 2 and closely correlates with relative responses observed for the Clinical Cohort.
(§3) The relative sensitivity of LSCs derived from primitive versus monocytic AML specimens was analyzed. […]

mono-AML ROS-low LSCs = experiment: In vitro viability / cell death of sorted ROS-low LSCs from monocytic AML; assay type: cell-based, human; conditions: 24 hours in vitro treatment; FIG. 2, FIG. 3
Description: as §1
FIG. 3 is a series of bar graphs viability of three mono-AMLs from the Research Cohort 2 after 24 hours in vitro treatment with various single or combinations drugs.
as §2, with “The in vitro drug sensitivity of these populations is shown in FIG. 2 and closely correlates with relative responses observed for the Clinical Cohort.” left out
as §3

SMILES: Nc1ncn([C@@H]2O[C@H](CO)[C@@H](O)[C@H]2O)c(=O)n1 [AZA, azacitidine]
- sensitivity/resistance (viability) of prim-AML ROS-low LSCs (prim-AML ROS-low LSCs): sensitive

SMILES: COCCn1c2c([n+](Cc3cnccn3)c1C)C(=O)c1ccccc1C2=O [YM155]
- sensitivity/resistance (viability) of mono-AML ROS-low LSCs (mono-AML ROS-low LSCs): sensitive
- sensitivity/resistance (viability) of prim-AML ROS-low LSCs (prim-AML ROS-low LSCs): highly resistant
